Bridges are numbered along the chain shown (N, C = ends). Where no end group is shown, it is not given here.
How the values were obtained:
[1] = tested on: osteopontin (OPN); test: Western blot total protein OPN; format: cell-based; details: 48 h, TGF-β1+AF38Pep
[2] = tested on: EDA-FN; test: Western blot total protein EDA-FN; format: cell-based; details: 48 h, TGF-β1+AF38Pep
[3] = tested on: mouse NIH/3T3 dermal fibroblast cells, α-SMA mRNA; test: α-SMA mRNA expression (qRT-PCR) in TGF-β1-treated NIH/3T3; format: cell-based
Procedure: HFL1 cells were cultured in Kaighn’s modified Ham’s F-12 (F-12K) medium (Sigma-Aldrich) containing NaHCO3 and HEPES buffered to pH 7. Cells were grown to confluence in T75 culture flasks in the presence of 10% fetal bovine serum (FBS; Gibco, Thermo Fisher Scientific, Waltham, MA, USA). HFL1 cells were subcultured using 0.05% trypsin at a ratio of 1:3. NIH/3T3 cells were cultured in Dulbecco’s Modified Eagle Medium (DMEM; HyClone, Thermo Fisher Scientific) containing 100 U/mL penicillin and 100 μg/mL streptomycin. Cells were grown to confluence in T75 culture flasks in the presence of 10% FBS. NIH/3T3 cells were subcultured using 0.05% trypsin/EDTA at a ratio of 1:3. All cells were maintained at 37 °C and 5% CO2, and growth medium was replenished every 3 days until experimentation. Cells were growth-arrested in serum-free medium for 48 h before experiments, and all experiments were performed under serum-free conditions using cells between passages 3 and 8.
(§1) Reverse transcription (RT) and real-time quantitative PCR (qRT-PCR) were used to assess ACTA2/Acta2, Col1a1, Col3a1, Fn1, Eda-Fn1, Mmp9, Tgfb1, Ltbp1, Hic5, and Mrtfa mRNA expressions. Custom PCR primers were designed in-house (Table 2) and then synthesized by BGI (Beijing, China). Cells were grown in 6-well culture plates and washed with phosphate buffered saline (PBS) before lysis with TRIzon Reagent (CWBio, Beijing, China) and total RNA purification according to the manufacturer’s protocol. Reverse transcription was carried using the TransScript First-Strand cDNA Synthesis SuperMix kit according to the manufacturer’s protocol (TransGen, Beijing, China), using the random primer method for the initiation of cDNA synthesis. Nuclease-free H2O replaced the RNA sample to serve as a negative control for the reverse transcription reaction. For qRT-PCR, 10 µL 2× TransStart Top Green qPCR SuperMix was added to each well of a 96-well PCR plate containing 0.4 µL forward primer, 0.4 µL reverse primer, […], and nuclease-free water to a total volume of 20 µL. […]

[4] = tested on: VCAM1–ITGA4 interaction; test: Co-IP of VCAM1 with ITGA4; format: cell-based; details: 48 h, Co-IP with anti-ITGA4
Procedure: (§2) Total protein was extracted from cells in RIPA lysis buffer containing 1% protease inhibitor cocktail, 1% phenylmethylsulfonyl fluoride, and 1% sodium orthovanadate (Santa Cruz Biotechnology, Santa Cruz, CA, USA). Protein was quantified by Micro BCA Protein Assay Kit (Thermo Fisher Scientific) before 7.5% SDS-PAGE and transfer to nitrocellulose. Membranes were blocked with 5% bovine serum albumin (BSA; Sigma-Aldrich)/0.5% Tween-20 (Sigma-Aldrich)/PBS for 1 h, RT, followed by incubation with primary antibodies diluted in 1% BSA/0.1% Tween-20/PBS, overnight at 4 °C. Primary antibodies were: anti-phosphoY204/Y187 ERK1/2 (1:1000); anti-ERK1/2 (1:1000); anti-phosphoY861 FAK (1:1000); anti-FAK (1:2000). Immunoblotting for anti-GAPDH (1:2500) was used as a protein loading control. Following wash steps, membranes were incubated in goat anti-rabbit IgG H&L secondary antibody (horseradish peroxidase, HRP conjugate, […]) (Abcam; 1:5000 dilution, 1% BSA/0.1% Tween-20/PBS). Detection was performed using Immobilon reagent (Merck Millipore, Burlington, MA, USA) and imaged using a Tanon 5500 Chemiluminescent Imaging System (Tanon, Shanghai, China).
A volume of 25 µg total protein from cell lysate in nondenaturing lysis buffer containing protease inhibitors was immunoprecipitated (IP) using anti-ITGA4 antibodies linked to protein A/G sepharose beads (Abcam). […]

[5] = tested on: NIH/3T3 cells, total collagen; test: Hydroxyproline assay, total collagen synthesis; format: cell-based, mouse; details: 48 h, TGF-β1 + AF38Pep; % of cells that only received TGF-β1
Procedure: Approximately 4 × 10^6 of TGF-β1- and/or AF38Pep-treated NIH/3T3 fibroblast cells were harvested and homogenized in 1:1 conditioned medium to HCl (10N), before incubation at 120 °C for 24 h or until complete sample hydrolyzation. Cell-associated and soluble collagen contents were assessed using the Chondrex Hydroxyproline Assay kit (Chondrex, Redmond, WA, USA) according to the manufacturer’s protocol. In brief, 10 µL of sample, standard or blank control solution was added in duplicate to a 96-well clear-bottomed absorbance plate. Next, 100 µL of 1× chloramine-T solution was added to the wells and incubated at room temperature (RT) for 20 min. After incubation, 100 µL 1× DMAB solution was added to the wells and incubated at 60 °C for 30 min, with mild agitation at 5 min intervals. The plate O.D. values were read at 540 nm and sample values were compared to the values of the standard curve. The total collagen content was determined using the following equation:Collagen level (µg/mL) = Hydroxyproline level (µg/mL) × (100/13.5)

[6] = tested on: Eda-Fn1 mRNA; test: qRT-PCR Eda-Fn1 mRNA; format: cell-based, mouse
Procedure: as §1, with “µL. The qRT-PCR reaction was completed using a CFX96 Real-Time PCR Detection System (Bio-Rad Laboratories, Hercules, CA, USA). Amplification used the following parameters: 94 °C for 30 s, followed by 40 cycles of 94 °C for 5 s, 55 °C for 15 s, 72 °C for 10 s, and then a dissociation stage (melt-curve).” for “µL.”

[7] = tested on: Col1a1 mRNA; test: qRT-PCR Col1a1 mRNA; format: cell-based, mouse
Procedure: as §1, with “µL. The qRT-PCR reaction was completed using a CFX96 Real-Time PCR Detection System (Bio-Rad Laboratories, Hercules, CA, USA). Amplification used the following parameters: 94 °C for 30 s, followed by 40 cycles of 94 °C for 5 s, 55 °C for 15 s, 72 °C for 10 s, and then a dissociation stage (melt-curve).” for “µL.”

[8] = tested on: ERK1/2 in NIH/3T3 fibroblasts; test: Western blot ERK1/2 phosphorylation; format: cell-based, mouse; details: TGF-β1 10 ng/mL, AF38Pep 10 µg/mL
Procedure: as §2

[9] = tested on: Mmp9 mRNA in NIH/3T3 fibroblasts; test: qRT-PCR Mmp9 mRNA; format: cell-based, mouse; details: 48 h, TGF-β1 10 ng/mL
Procedure: as §1, with “µL. The qRT-PCR reaction was completed using a CFX96 Real-Time PCR Detection System (Bio-Rad Laboratories, Hercules, CA, USA). Amplification used the following parameters: 94 °C for 30 s, followed by 40 cycles of 94 °C for 5 s, 55 °C for 15 s, 72 °C for 10 s, and then a dissociation stage (melt-curve).” for “µL.”

VMPYISTTPAKPCTSENCGNSWYGGFKSKNENKIYFIN (disulfide 13-18 (inferred)) [AF38Pep]
OPN protein expression [1]: significantly attenuated | TGF-β1-driven EDA-FN total protein increase [2]: marginally, but significantly, attenuated | attenuation of TGF-β1-induced α-SMA mRNA ([3]; NIH/3T3, 48 h, all concentrations tested (log10 dilution range)): significantly attenuated gene induction at 48 h in all concentrations tested | attenuation of TGF-β1-induced α-SMA mRNA ([3]; NIH/3T3, 72 h, 10 µg/mL): only AF38Pep treatment at a concentration of 10 µg/mL was sufficient to significantly attenuate the α-SMA mRNA upregulation | attenuation of TGF-β1-induced α-SMA mRNA ([3]; NIH/3T3, 72 h, 0.1–1 µg/mL): not able to effectively inhibit the differentiation response over the 72 h duration of treatment | VCAM1–ITGA4 binding [4]: unaffected by cell treatments and remained at basal levels | total collagen synthesis relative to TGF-β1 only [5]: approximately 60% | EDA-FN splice variant mRNA expression ([6]; 72 h, TGF-β1 + AF38Pep): all inhibited | EDA-FN splice variant mRNA expression ([6]; by 48 h, vs TGF-β1-only): significant attenuation | collagen type I mRNA expression ([7]; 72 h, TGF-β1 + AF38Pep): all inhibited | collagen type I mRNA expression ([7]; by 48 h, vs TGF-β1-only): significant attenuation | ERK1/2 phosphorylation ([8]; 1 h): significantly suppressed | ERK1/2 phosphorylation ([8]; 12 h): not prevented | MMP9 mRNA expression [9]: attenuated
